pIC50: −log10 of the molar value. ≈ marks a conversion by molar mass, not a printed value.
Key:
[1] = molecular target: ATP-dependent translocase ABCB1 (Homo sapiens, UniProt P08183); assay: Binding affinity to P-gp in vincristine resistant human Eca-109 cells assessed as stabilization of protein at 67 degree C at 100 uM incubated for 30 mins by thermal shift assay; format: cell-based; details: eca-109, 0.5 h
ECa-109 cell line [2] = assay: Cytotoxicity against vincristine resistant human Eca-109 cells incubated for 48 hrs by CCK-8 method relative to control; format: functional; parameters: concentration or dose not given beside the values
ECa-109 cell line [3] = assay: Reversal of vincristine-resistance in human Eca-109 cells assessed as fold reversal by measuring cell viability incubated for 48 hrs by CCK-8 method relative to vincristine alone; format: functional
[4] = Toxicity in nude mouse assessed as change in body weight at 0.2 mg/kg administered every 2 days for 21 days; format: organism-based; details: in vivo, 48 h, time 2 day
ECa-109 cell line [5] = assay: Reversal of VCR -resistance in human Eca-109 cells assessed as cell viability at 5 uM incubated for 48 hrs by CCK-8 method (reference value: 6830.0+/-537.0 nM); format: functional, cell-based; details: ECa-109, 48 h
ECa-109 cell line [6] = assay: Reversal of vincristine-resistance in human Eca-109 cells assessed as fold reversal by measuring cell viability at 5 uM incubated for 48 hrs by CCK-8 method relative to vincristine alone; format: functional
ECa-109 cell line [7] = assay: Induction of apoptosis in vincristine resistant human Eca-109 cells assessed as viable cells at 5 uM incubated for 24 hrs in presence of vincristine by AnnexinV-FITC/PI staining based flow cytometric analysis (reference value: 89.2%); format: functional; details: read-out: Activity
ECa-109 cell line [8] = assay: Induction of apoptosis in vincristine resistant human Eca-109 cells assessed as late apoptotic cells at 5 uM incubated for 24 hrs by AnnexinV-FITC/PI staining based flow cytometric analysis (reference value: 7.19%); format: functional
ECa-109 cell line [9] = assay: Induction of apoptosis in vincristine resistant human Eca-109 cells assessed as late apoptotic cells at 5 uM incubated for 24 hrs in presence of vincristine by AnnexinV-FITC/PI staining based flow cytometric analysis (reference value: 6.01%); format: functional
ECa-109 cell line [10] = assay: Induction of apoptosis in vincristine resistant human Eca-109 cells assessed as early apoptotic cells at 5 uM incubated for 24 hrs by AnnexinV-FITC/PI staining based flow cytometric analysis (reference value: 2.30%); format: functional
ECa-109 cell line [11] = assay: Induction of apoptosis in vincristine resistant human Eca-109 cells assessed as viable cells at 5 uM incubated for 24 hrs by AnnexinV-FITC/PI staining based flow cytometric analysis (reference value: 90.3%); format: functional; details: read-out: Activity
ECa-109 cell line [12] = assay: Induction of apoptosis in vincristine resistant human Eca-109 cells assessed as necrotic cells at 5 uM incubated for 24 hrs in presence of vincristine by AnnexinV-FITC/PI staining based flow cytometric analysis (reference value: 0.35%); format: functional
[13] = Solubility of the compound in water at 25 degree C by shake flask method based UV-spectrophotometric method; format: physicochemical
ECa-109 cell line [14] = assay: Induction of apoptosis in vincristine resistant human Eca-109 cells assessed as necrotic cells at 5 uM incubated for 24 hrs by AnnexinV-FITC/PI staining based flow cytometric analysis (reference value: 0.25%); format: functional
ECa-109 cell line [15] = assay: Induction of apoptosis in vincristine resistant human Eca-109 cells assessed as early apoptotic cells at 5 uM incubated for 24 hrs in presence of vincristine by AnnexinV-FITC/PI staining based flow cytometric analysis (reference value: 4.43%); format: functional

Sequence of ATP-dependent translocase ABCB1 (P08183 whole entry): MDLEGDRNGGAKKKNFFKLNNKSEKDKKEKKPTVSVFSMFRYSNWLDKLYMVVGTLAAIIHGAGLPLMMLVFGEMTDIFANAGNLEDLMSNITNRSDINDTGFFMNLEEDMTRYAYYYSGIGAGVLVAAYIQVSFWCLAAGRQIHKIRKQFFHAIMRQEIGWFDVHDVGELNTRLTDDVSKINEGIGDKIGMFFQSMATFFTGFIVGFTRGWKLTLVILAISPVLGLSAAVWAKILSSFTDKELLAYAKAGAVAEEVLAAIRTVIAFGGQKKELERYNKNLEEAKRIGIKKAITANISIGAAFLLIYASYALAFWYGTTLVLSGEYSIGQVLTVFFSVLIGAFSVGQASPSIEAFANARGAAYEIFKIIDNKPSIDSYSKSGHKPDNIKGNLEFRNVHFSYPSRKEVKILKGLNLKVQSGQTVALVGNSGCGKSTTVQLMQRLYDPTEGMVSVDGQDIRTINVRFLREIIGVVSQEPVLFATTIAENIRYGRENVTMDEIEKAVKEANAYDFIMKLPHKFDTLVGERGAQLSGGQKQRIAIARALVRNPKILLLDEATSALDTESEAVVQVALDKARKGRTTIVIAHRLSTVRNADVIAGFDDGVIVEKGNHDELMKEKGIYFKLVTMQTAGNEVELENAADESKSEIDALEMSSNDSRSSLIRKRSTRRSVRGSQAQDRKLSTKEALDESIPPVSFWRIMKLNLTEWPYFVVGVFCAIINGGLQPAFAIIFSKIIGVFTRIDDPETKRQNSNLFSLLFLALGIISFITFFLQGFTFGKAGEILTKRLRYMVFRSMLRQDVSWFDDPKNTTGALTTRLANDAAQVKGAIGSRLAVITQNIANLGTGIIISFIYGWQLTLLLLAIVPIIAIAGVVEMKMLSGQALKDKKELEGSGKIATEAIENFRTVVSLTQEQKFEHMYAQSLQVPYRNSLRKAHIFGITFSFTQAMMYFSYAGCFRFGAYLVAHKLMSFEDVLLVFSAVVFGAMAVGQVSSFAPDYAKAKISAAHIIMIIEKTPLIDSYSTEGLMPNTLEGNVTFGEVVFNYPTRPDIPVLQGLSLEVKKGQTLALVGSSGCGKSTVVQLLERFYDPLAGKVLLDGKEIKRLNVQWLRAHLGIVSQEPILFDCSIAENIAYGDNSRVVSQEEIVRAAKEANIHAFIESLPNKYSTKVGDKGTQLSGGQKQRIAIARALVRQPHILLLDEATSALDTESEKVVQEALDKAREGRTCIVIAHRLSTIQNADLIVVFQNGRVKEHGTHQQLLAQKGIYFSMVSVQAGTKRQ

SMILES | Activity (ECa-109 cell line [2]) | fold change (FC) (ECa-109 cell line [3]) | further results
COc1cc2c(cc1OC)CN(CCc1ccc(NC(=O)c3cc(OC)c(OC)cc3NC(=O)c3cnc4ccccc4c3)cc1)CC2 [TARIQUIDAR] | 85.9% | 187.4 | Activity [1]: Active
CC[C@]1(O)C[C@H]2CN(CCc3c([nH]c4ccccc34)[C@@](C(=O)OC)(c3cc4c(cc3OC)N(C=O)[C@H]3[C@@](O)(C(=O)OC)[C@H](OC(C)=O)[C@]5(CC)C=CCN6CC[C@]43[C@@H]65)C2)C1 [VINCRISTINE] |  |  | Activity [4]: Non-Toxic
COc1cc2c(cc1OC)C(Cc1ccc(OC)c(OCC3CCOCC3)c1)N(C)CC2 (stereo unspecified) | 94.4% | 126.8 | 
CCOC(=O)CCCOc1cc(CC2c3cc(OC)c(OC)cc3CCN2C)ccc1OC (stereo unspecified) | 86.7% | 219.3 | 
COc1cc2c(cc1OC)C(Cc1ccc(OCCC3CCCCC3)c(OC)c1)N(C)CC2 (stereo unspecified) | 54.3% | 166.4 | 
COc1ccc(C[C@@H]2c3cc(Oc4cc(C[C@@H]5c6cc(OC)c(OC)cc6CCN5C)ccc4O)c(OC)cc3CCN2C)cc1 [NEFERINE] |  |  | pIC50 (ECa-109 cell line [5]): 5.42; fold change (FC) (ECa-109 cell line [6]): 1.8
COc1cc2c(cc1OC)C(Cc1cccc(Cl)c1)N(C)CC2 (stereo unspecified) | 89% | 23.6 | 
COc1cc2c(cc1OC)C(=O)N(C)CC2 | 98.4% | 3.2 | 
COc1cc2c(cc1OC)C(Cc1ccc([N+](=O)[O-])cc1)N(C)CC2 (stereo unspecified) | 87.1% | 2.3 | 
COc1cc2c(cc1OC)C(Cc1ccc3c(c1)OCO3)N(C)CC2 (stereo unspecified) | 90.8% | 5 | 
COc1cc2c(cc1OC)C1Cc3ccc(OC)c(O)c3CN1CC2 (stereo unspecified) | 74.2% | 1.2 | 
COc1cc2c(cc1OC)C(Cc1ccc(I)cc1)N(C)CC2 (stereo unspecified) | 99% | 2.9 | 
COc1cc2c(cc1OC)C(Cc1ccc(Br)cc1)N(C)CC2 (stereo unspecified) | 92.8% | 1.6 | 
COc1cc2c(cc1OC)C(CC(C)C)N(C)CC2 (stereo unspecified) | 96.1% | 3.3 | 
COc1cc2c(cc1OC)C(CC(F)(F)F)N(C)CC2 (stereo unspecified) | 88.2% | 3 | 
COc1cc2c(cc1OC)C(Cc1cccc(O)c1)N(C)CC2 (stereo unspecified) | 99.2% | 4.3 | 
COc1cc2c(cc1OC)C(Cc1ccc(OC)c(OCC3CCCCC3)c1)N(C)CC2 (stereo unspecified) | 88.1% | 140.3 | 
COc1cc2c(cc1OC)C(Cc1ccccc1O)N(C)CC2 (stereo unspecified) | 98.9% | 7.1 | 
COc1cc2c(cc1OC)C(Cc1ccc(F)cc1)N(C)CC2 (stereo unspecified) | 99.3% | 2.8 | 
COc1cc2c(cc1OC)CN(C)CC2 | 90.9% | 7.7 | 
COc1cc2c(cc1OC)C(Cc1ccc(C)cc1)N(C)CC2 (stereo unspecified) | 95.9% | 4.5 | 
COc1cc2c(cc1OC)C(Cc1ccc(O)cc1)N(C)CC2 (stereo unspecified) | 98.1% | 2.8 | 
COc1ccc(CC2c3cc(OC)c(OC)cc3CCN2C)cc1 (stereo unspecified) | 96.3% | 7.4 | 

SMILES | Activity (ECa-109 cell line [2]) | fold change (FC) (ECa-109 cell line [3]) | further results
COc1cc2c(cc1OC)C(Cc1ccc(C#N)cc1)N(C)CC2 (stereo unspecified) | 99.8% | 3.6 | 
CN1CCc2ccccc2C1=O | 91.3% | 2.5 | 
CN1CCc2cc(Br)ccc2C1=O | 88.6% | 2 | 
CCOc1ccc(CC2c3cc(OC)c(OC)cc3CCN2C)cc1OC (stereo unspecified) | 88% | 11.7 | 
COc1cc2c(cc1OC)C(Cc1ccc(OC)c(OCCC(C)C)c1)N(C)CC2 (stereo unspecified) | 87.1% | 205.7 | 
COc1ccc2cc1Oc1ccc(cc1)C[C@H]1c3cc(c(OC)cc3CCN1C)Oc1c(OC)c(OC)cc3c1[C@H](C2)N(C)CC3 [FANCHININ] | 87.1% | 232.6 | viability at 5 µM (ECa-109 cell line [7]): 67.5%; pIC50 (ECa-109 cell line [5]): 7.53; Activity (ECa-109 cell line [8]): 8.01%; Activity (ECa-109 cell line [9]): 13.1%; Activity (ECa-109 cell line [10]): 3.68%; viability at 5 µM (ECa-109 cell line [11]): 88.2%; fold change (FC) (ECa-109 cell line [6]): 232.6; Activity (ECa-109 cell line [12]): 0.54%; solubility thermodynamic [13]: 14.6 µg/mL (≈ 23.4 µM); Activity (ECa-109 cell line [14]): 0.15%; Activity (ECa-109 cell line [15]): 18.8%
COc1cc2c(cc1OC)C(Cc1ccccc1Cl)N(C)CC2 (stereo unspecified) | 96.3% | 13.4 | 
COc1cc2c(cc1OC)C(Cc1ccccc1)N(C)CC2 (stereo unspecified) | 93.7% | 4.4 | 
COc1cc(CC2c3cc(OC)c(OC)cc3CCN2C)ccc1O (stereo unspecified) | 90.3% | 2.8 | 
COc1cc2c(cc1OC)C(Cc1ccc(OC)c(OCCC3CCCCC3)c1)N(C)CC2 (stereo unspecified) | 81% | 143.3 | 
COc1ccc2cc1Oc1ccc(cc1)C[C@H]1c3c(cc4c(c3Oc3cc5c(cc3OC)CCN(C)[C@@H]5C2)OCO4)CCN1C [CEPHARANTHINE] |  |  | pIC50 (ECa-109 cell line [5]): 6.36; fold change (FC) (ECa-109 cell line [6]): 15.6
CCC1c2cc(OC)c(OC)cc2CCN1C (stereo unspecified) | 90.6% | 4.2 | 
COc1cc2c(cc1OC)C(C)N(C)CC2 (stereo unspecified) | 91.1% | 2.6 | 
COc1cc2c(cc1OC)C(c1ccc(O)cc1)N(C)CC2 (stereo unspecified) | 87.7% | 1.8 | 
COc1cc(Br)c(CC2c3cc(OC)c(OC)cc3CCN2C)cc1OC (stereo unspecified) | 93.4% | 16 | 
COc1cc2c(cc1OC)C(Cc1ccc(Cl)cc1)N(C)CC2 (stereo unspecified) | 93% | 8.6 | 
COc1ccc(CC2c3cc(OC)c(OC)cc3CCN2C)cc1OC (stereo unspecified) [LAUDANOSINE] | 90.7% | 12.9 | 
COc1cc2c(cc1OC)C(Cc1ccc(C(F)(F)F)cc1)N(C)CC2 (stereo unspecified) | 91.7% | 3.5 | 
COc1cc2c(cc1OC)C(Cc1ccc(OC)c(OCc3ccccc3)c1)N(Cc1ccccc1)CC2 (stereo unspecified) | 68.8% | 42.7 | 
COc1cc2c(cc1OC)C(CC1CCCCC1)N(C)CC2 (stereo unspecified) | 89.9% | 3.7 | 
COc1ccc(CCN(C)CCCC(C#N)(c2ccc(OC)c(OC)c2)C(C)C)cc1OC (stereo unspecified) [VERAPAMIL] | 95.6% | 10.1 | viability at 5 µM (ECa-109 cell line [7]): 68.8%; pIC50 (ECa-109 cell line [5]): 6.17; Activity (ECa-109 cell line [8]): 7.92%; Activity (ECa-109 cell line [9]): 10.5%; Activity (ECa-109 cell line [10]): 2.65%; viability at 5 µM (ECa-109 cell line [11]): 89.3%; fold change (FC) (ECa-109 cell line [6]): 10.1; Activity (ECa-109 cell line [12]): 0.48%; Activity (ECa-109 cell line [14]): 0.12%; Activity (ECa-109 cell line [15]): 20.3%
COc1ccc(CC2c3cc(OC)c(OC)cc3CCN2C)cc1O (stereo unspecified) | 903% | 2.5 | 
